Experimental findings from patent US8440837B2, “2-substituted-ethynylthiazole derivatives and uses of same” (H. Lundbeck A/S, priority 2009, dated 2013) are described below.

In the test the target is human metabotropic glutamate receptor 5 (hmGluR5) (UniProt P31424). Briefly: Calcium mobilization (FLIPR) assay, positive allosteric modulation of the EC20 glutamate response. The class given is cell-based. Particulars: HEK 293 cells; for maximum modulation (Emax): EC20 glutamate response; for EC50: increase in EC20 glutamate response. The procedure:
The cDNA for human metabotropic glutamate receptor 5 (hmGluR5) was a generous gift from S. Nakanishi (Kyoto University, Kyoto, Japan). The […] was stably expressed in a HEK 293 cell line and grown in Dulbecco's Modified Eagle Medium (DMEM) (Invitrogen, Carlsbad, Calif.) with supplements (10% bovine calf serum, 4 mM glutamine, 100 units/mL penicillin, 100 μg/mL streptomycin and […]) at 37° C., 5% CO2. Twenty-four hours prior to assay, cells were seeded into 384-well black wall microtiter plates coated with poly-D-lysine. Just prior to assay, media was aspirated and cells dye-loaded (25 μL/well) with 3 μM Fluo-4/0.01% pluronic acid in assay buffer (Hank's Balanced Saline Solution (HBSS)): 150 mM NaCl, 5 mM KCl, 1 mM CaCl2, 1 mM MgCl2, plus 20 mM N-2-Hydroxyethylpiperazine-N′-2-ethanesulfonic acid (HEPES), pH 7.4, 0.1% bovine serum albumin (BSA) and 2.5 mM probenicid) for 1 hour in 5% CO2 at 37° C. After excess dye was discarded, cells were washed in assay buffer and layered with a final volume equal to 30 μL/well. Basal fluorescence is monitored in a fluorometric imaging plate reader (FLIPR) (Molecular Devices, Sunnyvale, Calif.) with an excitation wavelength of 488 nm and an emission range of 500 to 560 nm. Laser excitation energy was adjusted so that basal fluorescence readings were approximately 10,000 relative fluorescent units. Cells were stimulated with an EC20 or an EC80 concentration of glutamate in the presence of a compound to be tested, both diluted in assay buffer, and relative fluorescent units were measured at defined intervals (exposure=0.6 sec) over a 3 min period at room temperature. Basal readings derived from negative controls were subtracted from all samples. Maximum change in fluorescence was calculated for each well. Concentration-response curves derived from the maximum change in fluorescence were analyzed by nonlinear regression (Hill equation).
A silent allosteric modulator (SAM) can be identified by using a combination of both the calcium mobilization assay data and the radioligand binding data. As used herein, the term “silent allosteric modulator” refers to a ligand that binds to an allosteric site of the receptor but has no measurable intrinsic efficacy.

Take `Cc1nc(C#Cc2ccccc2)sc1C(=O)N1CCC(C)CC1` [Example 14, (4-Methyl-2-phenylethynyl-thiazol-5-yl)-(4-methyl-piperidin-1-yl)-methanone]: the “maximum modulation (Emax)” value is reported as 91% and the EC50 amounted to 23 nM.

For `CC1CCN(C(=O)c2cnc(C#Cc3cccc(F)c3)s2)CC1` [Example 20], the “maximum modulation (Emax)” value stood at 110% and the EC50 was 0.71 nM.

For `Cc1cccc(C#Cc2ncc(C(=O)N3CCC(O)CC3)s2)c1` [Example 25, (4-Hydroxy-piperidin-1-yl)-(2-m-tolylethynyl-thiazol-5-yl)-methanone], the “maximum modulation (Emax)” value is listed as 50% and the half-maximal effective concentration (EC50) was 55 nM.

As for `O=C(c1cnc(C#Cc2ccc(F)cc2)s1)N1CCC(O)CC1` [Example 29, [2-(4-Fluoro-phenylethynyl)-thiazol-5-yl]-(4-hydroxy-piperidin-1-yl)-methanone], the “maximum modulation (Emax)” value is 100% and the EC50 is 2400 nM.

As to `O=C(c1cnc(C#Cc2ccc(F)cc2)s1)N1CCCCC1` [Example 30, [2-(4-Fluoro-phenylethynyl)-thiazol-5-yl]-piperidin-1-yl-methanone], the “maximum modulation (Emax)” value came to 110% and the concentration for a half-maximal effect (EC50) worked out at 29 nM.

Turning to `O=C(c1cnc(C#Cc2cccc(Cl)c2)s1)N1CCC(O)CC1` [Example 38, [2-(3-Chloro-phenylethynyl)-thiazol-5-yl]-(4-hydroxy-piperidin-1-yl)-methanone], the “maximum modulation (Emax)” value amounted to 42% and the half-maximal effective concentration (EC50) was found to be 12 nM.

In the case of `O=C(c1cnc(C#Cc2ccccc2)s1)N1CCN(c2ccccc2)CC1` [Example 41, (2-Phenylethynyl-thiazol-5-yl)-(4-phenyl-piperazin-1-yl)-methanone], the “maximum modulation (Emax)” value is 52% and the EC50 was determined as 360 nM.

For `CN1CCN(C(=O)c2cnc(C#Cc3ccccc3)s2)CC1` [Example 42, (4-Methyl-piperazin-1-yl)-(2-phenylethynyl-thiazol-5-yl)-methanone], the “maximum modulation (Emax)” value came to 160% and the EC50 amounted to 530 nM.

Turning to `O=C(c1cnc(C#Cc2ccccc2)s1)N1CCCCCC1` [Example 58, Azepan-1-yl-(2-phenylethynyl-thiazol-5-yl)-methanone], the “maximum modulation (Emax)” value was 79% and the concentration giving a half-maximal response (EC50) was 5.2 nM.

Consider `CC1CCN(C(=O)c2cnc(C#Cc3ccccc3F)s2)CC1` [Example 63, [2-(2-Fluoro-phenylethynyl)-thiazol-5-yl]-(4-methyl-piperidin-1-yl)-methanone], for which the “maximum modulation (Emax)” value stood at 140% and the EC50 was determined as 20 nM.

Regarding `O=C(c1cnc(C#Cc2ccccc2Cl)s1)N1CCCCC1` [Example 68, [2-(2-Chloro-phenylethynyl)-thiazol-5-yl]-piperidin-1-yl-methanone], the “maximum modulation (Emax)” value was determined as 100% and the EC50 is 440 nM.

Take `O=C(c1cnc(C#Cc2ccccc2)s1)N1CCc2[nH]ncc2C1` [Example 77, (2-Phenylethynyl-thiazol-5-yl)-(1,4,6,7-tetrahydro-pyrazolo[4,3-c]pyridin-5-yl)-methanone]: the “maximum modulation (Emax)” value is given as 120% and the 50% effective concentration (EC50) was 100 nM.

Consider `O=C(c1cnc(C#Cc2ccccc2)s1)N1CCC2(CCCO2)CC1` [Example 78], for which the “maximum modulation (Emax)” value is recorded as 120% and the EC50 came out at 200 nM.

On to `CC1(O)CCN(C(=O)c2cnc(C#Cc3ccccc3)s2)CC1` [Example 80, (4-Hydroxy-4-methyl-piperidin-1-yl)-(2-phenylethynyl-thiazol-5-yl)-methanone], for which the “maximum modulation (Emax)” value is on record as 120% and the 50% effective concentration (EC50) was found to be 290 nM.

`O=C(c1cnc(C#Cc2ccccc2)s1)N1CCC(F)(F)CC1` [Example 82, (4,4-Difluoro-piperidin-1-yl)-(2-phenylethynyl-thiazol-5-yl)-methanone]: the “maximum modulation (Emax)” value worked out at 150% and the concentration giving a half-maximal response (EC50) is 4.3 nM.

Consider `O=C(c1cnc(C#Cc2ccccc2)s1)N1CCC(C(F)(F)F)CC1` [Example 111, (2-Phenylethynyl-thiazol-5-yl)-(4-trifluoromethyl-piperidin-1-yl)-methanone], for which the “maximum modulation (Emax)” value stood at 130% and the half-maximal effective concentration (EC50) worked out at 64 nM.

Consider `COC1CCCN(C(=O)c2cnc(C#Cc3ccccc3)s2)C1` (stereo not drawn) [Example 119, (3-Methoxy-piperidin-1-yl)-(2-phenylethynyl-thiazol-5-yl)-methanone], for which the “maximum modulation (Emax)” value came to 46% and the EC50 turned out to be 140 nM.

As to `COC1CCN(C(=O)c2cnc(C#Cc3ccccc3)s2)CC1` [Example 121, (4-Methoxy-piperidin-1-yl)-(2-phenylethynyl-thiazol-5-yl)-methanone], the “maximum modulation (Emax)” value turned out to be 140% and the EC50 came to 58 nM.

For `CCOC1CCN(C(=O)c2cnc(C#Cc3ccccc3)s2)CC1` [Example 122, (4-Ethoxy-piperidin-1-yl)-(2-phenylethynyl-thiazol-5-yl)-methanone], the “maximum modulation (Emax)” value stood at 130% and the concentration for a half-maximal effect (EC50) worked out at 220 nM.

Turning to `O=C(c1cnc(C#Cc2ccccc2)s1)N1CC(N2CCOCC2)C1` [Example 132, (3-Morpholin-4-yl-azetidin-1-yl)-(2-phenylethynyl-thiazol-5-yl)-methanone], the “maximum modulation (Emax)” value amounted to 40% and the 50% effective concentration (EC50) is 230 nM.

Regarding `O=C(c1cnc(C#Cc2ccccc2)s1)N1CCc2sccc2C1` [Example 135, (6,7-Dihydro-4H-thieno[3,2-c]pyridin-5-yl)-(2-phenylethynyl-thiazol-5-yl)-methanone], the “maximum modulation (Emax)” value amounted to 180% and the EC50 was found to be 20 nM.

Consider `CC1(O)CCN(C(=O)c2cnc(C#Cc3ccccc3)s2)C1` (stereo not drawn) [Example 137, (3-Hydroxy-3-methyl-pyrrolidin-1-yl)-(2-phenylethynyl-thiazol-5-yl)-methanone], for which the “maximum modulation (Emax)” value stood at 38% and the EC50 worked out at 110 nM.

As for `O=C1CCN(C(=O)c2cnc(C#Cc3ccccc3)s2)C1` [Example 140, 1-(2-Phenylethynyl-thiazole-5-carbonyl)-pyrrolidin-3-one], the “maximum modulation (Emax)” value is 110% and the concentration giving a half-maximal response (EC50) was 110 nM.

Regarding `O=C(c1cnc(C#Cc2ccccc2)s1)N1CCC(N2CCCC2)C1` (stereo not drawn) [Example 141, [1,3]Bipyrrolidinyl-1-yl-(2-phenylethynyl-thiazol-5-yl)-methanone], the EC50 was found to be 4000 nM.

As to `O=C(c1cnc(C#Cc2ccccc2)s1)N1CC2CCCC2C1` (stereo not drawn) [Example 144, (Hexahydro-cyclopenta[c]pyrrol-2-yl)-(2-phenylethynyl-thiazol-5-yl)-methanone], the “maximum modulation (Emax)” value was determined as 110% and the concentration for a half-maximal effect (EC50) is 1.8 nM.

Consider `O=C(c1cnc(C#Cc2ccccc2)s1)N1CC2CCC1C2` (stereo not drawn) [Example 146, (2-Aza-bicyclo[2.2.1]hept-2-yl)-(2-phenylethynyl-thiazol-5-yl)-methanone], for which the “maximum modulation (Emax)” value is 69% and the EC50 amounted to 8.2 nM.

Consider `O=C(c1cnc(C#Cc2ccccc2)s1)N1CCCC(N2CCOCC2)CC1` (stereo not drawn) [Example 148, (4-Morpholin-4-yl-azepan-1-yl)-(2-phenylethynyl-thiazol-5-yl)-methanone], for which the “maximum modulation (Emax)” value is listed as 100% and the concentration giving a half-maximal response (EC50) came out at 3400 nM.

Turning to `CC1(O)CCCN(C(=O)c2cnc(C#Cc3ccccc3)s2)CC1` (stereo not drawn) [Example 151, (4-Hydroxy-4-methyl-azepan-1-yl)-(2-phenylethynyl-thiazol-5-yl)-methanone], the “maximum modulation (Emax)” value worked out at 61% and the half-maximal effective concentration (EC50) is 73 nM.

As to `CN1CCN(C(=O)c2cnc(C#Cc3cccc(Cl)c3)s2)CC1` [Example 158, [2-(3-Chloro-phenylethynyl)-thiazol-5-yl]-(4-methyl-piperazin-1-yl)-methanone], the “maximum modulation (Emax)” value was 94% and the concentration giving a half-maximal response (EC50) came out at 140 nM.

Consider `CCN1CCN(C(=O)c2cnc(C#Cc3cccc(Cl)c3)s2)CC1` [Example 159, [2-(3-Chloro-phenylethynyl)-thiazol-5-yl]-(4-ethyl-piperazin-1-yl)-methanone], for which the “maximum modulation (Emax)” value came out at 74% and the EC50 was 510 nM.

As for `O=C(c1cnc(C#Cc2ccccc2)s1)N1CC2(COC2)C1` [Example 167, (2-Oxa-6-aza-spiro[3.3]hept-6-yl)-(2-phenylethynyl-thiazol-5-yl)-methanone], the “maximum modulation (Emax)” value was 150% and the EC50 amounted to 1900 nM.

As to `O=C(c1cnc(C#Cc2cccnc2)s1)N1CCCCC1` [Example 188, Piperidin-1-yl-(2-pyridin-3-ylethynyl-thiazol-5-yl)-methanone], the “maximum modulation (Emax)” value was 95% and the EC50 turned out to be 6200 nM.
